Assays:
Assay type in all cases: cell-based, human
[1] = system: HCT 116 cells transduced with the PDE5A DD derived GFP constructs; assay: Response to Vardenafil, GFP expression by FACS in HCT116; details: for MFI / Stabilization ratio with Vardenafil: 48 hours, HCT116
Experimental: (§1) Mutations were created in PDE5A (535-860) catalytic domain using site directed mutagenesis and the mutants were cloned as AcGFP fusion into pELNS vector carrying mCherry marker and packaged in lentiviral vectors. HCT116 cells were transduced with the constructs and stable integrants were selected by cell sorting using mCherry marker. Cells were treated with vehicle (dimethyl sulfoxide, DMSO) or 10 μM Vardenafil (VDF) for 48 hours. Following the treatment, cells were analyzed for GFP expression using FACS. Basal expression was calculated as the ratio of GFP signal in the absence of ligand for a given cell line to auto fluorescence of parental HCT-116 cells. Stabilization ratio was calculated as the ratio of the GFP signal observed in the presence of stabilizing ligand to the signal from the same cell line in the absence of ligand.
HCT 116 cells transduced with the PDE5A DD derived GFP constructs were also tested with increasing doses of Vardenafil. The HCT116 cells were incubated for 48 hours with Vardenafil starting at a dose of 0.002 μM to 30 μM. The GFP intensity of the Vardenafil treated samples was compared to the parental untransduced HCT116 and DMSO treated cells for each construct. The mean fluorescence intensity was calculated for each sample and used to calculate the stabilization ratios as well as the basal expression for each construct. The GFP expression was measured using flow cytometry and the mean fluorescence intensity (MFI) was calculated for each sample. The stabilization ratios are shown in Table 13 and Table 14 and the basal expression is show in Table 15.

[2] = system: HCT 116 cells transduced with the PDE5A DD derived GFP constructs; assay: Response to Tadalafil, GFP expression by FACS in HCT116; details: for MFI / Stabilization ratio with Tadalafil: 48 hours, HCT116
Experimental: as §1, with “PDE5AN (#3) was” for “Mutations were created in PDE5A (535-860) catalytic domain using site directed mutagenesis and the mutants were”, “construct” for “constructs”, “varying doses of Tadalafil (TDF)” for “10 μM Vardenafil (VDF)”, “hrs with doses ranging from 0.01 μM to 100 μM.” for “hours.”
HCT 116 cells transduced with the PDE5A DD derived GFP constructs were also tested with increasing doses of Tadalafil. The HCT116 cells were incubated for 48 hours with Tadalafil starting at dose 0.01 μM to 100 μM. The GFP intensity of the Tadalafil treated samples was compared to the parental untransduced HCT116 and DMSO treated cells for each construct. The mean fluorescence intensity was calculated for each sample and used to calculate the stabilization ratios as well as the basal expression for each construct. The stabilization ratios are shown in Table 19 and Table 20 and the basal expression is show in Table 21.

[3] = system: HCT116 cells transduced with the constructs; assay: Response to Sildenafil, GFP expression by flow cytometry in HCT116; details: for MFI / Stabilization ratio with Sildenafil: 48 hours, HCT116
Experimental: Similar experiments were performed in HCT116 cells using sildenafil. The above-mentioned DDs were cloned as AcGFP fusion into pELNS vector carrying mCherry marker and packaged in lentiviral vectors. HCT116 cells were transduced with the constructs and stable integrants were selected by cell sorting using mCherry marker. Cells were treated with sildenafil at the following μM concentrations: 0.01, 0.02, 0.05, 0.14, 0.41, 1.23, 3.7, 11.11, 33.33, and 100 for a duration of 48 hours. The fluorescence was analyzed by flow cytometry and the mean fluorescence intensity was calculated for all samples. […] The stabilization ratios are shown in Table 24 and Table 25 and the basal expression is show in Table 26.

In the case of “PDE5AC (#13): AcGFP fused to C-terminal DD 535-860 of PDE5A (Q589R, Y676D, L738H), SEQ ID NO. 24”, the MFI ([1]; DMSO (no Vardenafil)) was 14659, the “Basal (DMSO/Parental)” value ([1]; Table 10, GFP signal without ligand / auto fluorescence of parental HCT-116) was 11.3 and the Basal ([1]; Table 15, MFI with DMSO / parental HCT116, Vardenafil experiment) was 7.50. The “Stabilization ratio with Vardenafil” value ([1]; Vardenafil 0.002 μM vs DMSO) was 1.3, the MFI ([1]; Vardenafil 0.002 μM) was 18393 and the MFI ([1]; Vardenafil 0.005 μM) was 27661. For the same substance, the “Stabilization ratio with Vardenafil” value ([1]; Vardenafil 0.014 μM vs DMSO) was 4.1, the MFI ([1]; Vardenafil 0.014 μM) was 59673 and the “Stabilization ratio with Vardenafil” value ([1]; Vardenafil 0.041 μM vs DMSO) was 5.3. The MFI ([1]; Vardenafil 0.041 μM) was 78117, the “Stabilization ratio with Vardenafil” value ([1]; Vardenafil 0.123 μM vs DMSO) was 6.0 and the MFI ([1]; Vardenafil 0.123 μM) was 88571. For the same substance, the “Stabilization ratio with Vardenafil” value ([1]; Vardenafil 0.370 μM vs DMSO) was 6.8, the MFI ([1]; Vardenafil 0.370 μM) was 99160 and the “Stabilization ratio with Vardenafil” value ([1]; Vardenafil 1.111 μM vs DMSO) was 6.8. For the same substance, the MFI ([1]; Vardenafil 1.111 μM) was 99377, the “Stabilization ratio with Vardenafil” value ([1]; Vardenafil 3.333 μM vs DMSO) was 7.2 and the MFI ([1]; Vardenafil 3.333 μM) was 105500. For the same substance, the “Stabilization ratio with Vardenafil” value ([1]; Vardenafil 10 μM vs DMSO) was 6.7, the MFI ([1]; Vardenafil 10 μM) was 97493 and the “Stabilization ratio with Vardenafil” value ([1]; Vardenafil 30 μM vs DMSO) was 7.2. For the same substance, the MFI ([1]; Vardenafil 30 μM) was 105335, the MFI ([2]; DMSO (no Tadalafil)) was 14416 and the “Basal expression” value ([2]; Table 21, MFI with DMSO / parental HCT116, Tadalafil experiment) was 11.26. The “Stabilization ratio with Tadalafil” value ([2]; Tadalafil 0.01 μM vs DMSO) was 1.0, the MFI ([2]; Tadalafil 0.01 μM) was 14388 and the “Stabilization ratio with Tadalafil” value ([2]; Tadalafil 0.02 μM vs DMSO) was 1.0. For the same substance, the MFI ([2]; Tadalafil 0.02 μM) was 14908, the “Stabilization ratio with Tadalafil” value ([2]; Tadalafil 0.05 μM vs DMSO) was 1.1 and the MFI ([2]; Tadalafil 0.05 μM) was 16488. The MFI ([2]; Tadalafil 0.14 μM) was 21292, the “Stabilization ratio with Tadalafil” value ([2]; Tadalafil 0.41 μM vs DMSO) was 2.3 and the MFI ([2]; Tadalafil 0.41 μM) was 33396. The “Stabilization ratio with Tadalafil” value ([2]; Tadalafil 1.23 μM vs DMSO) was 4.1, the MFI ([2]; Tadalafil 1.23 μM) was 58867 and the “Stabilization ratio with Tadalafil” value ([2]; Tadalafil 3.7 μM vs DMSO) was 5.7. For the same substance, the MFI ([2]; Tadalafil 3.7 μM) was 81755, the “Stabilization ratio with Tadalafil” value ([2]; Tadalafil 11.11 μM vs DMSO) was 6.4 and the MFI ([2]; Tadalafil 11.11 μM) was 92484. The “Stabilization ratio with Tadalafil” value ([2]; Tadalafil 33.33 μM vs DMSO) was 6.7, the MFI ([2]; Tadalafil 33.33 μM) was 96959 and the “Stabilization ratio with Tadalafil” value ([2]; Tadalafil 100 μM vs DMSO) was 7.3. The MFI ([2]; Tadalafil 100 μM) was 105048, the MFI ([3]; DMSO (no Sildenafil)) was 15122 and the “Stabilization ratio with Sildenafil” value ([3]; Sildenafil 0.01 μM vs DMSO) was 1.0. The MFI ([3]; Sildenafil 0.01 μM) was 14787, the “Stabilization ratio with Sildenafil” value ([3]; Sildenafil 0.02 μM vs DMSO) was 1.1 and the MFI ([3]; Sildenafil 0.02 μM) was 17318. The MFI ([3]; Sildenafil 0.05 μM) was 26905, the “Stabilization ratio with Sildenafil” value ([3]; Sildenafil 0.14 μM vs DMSO) was 3.2 and the MFI ([3]; Sildenafil 0.14 μM) was 48611. The “Stabilization ratio with Sildenafil” value ([3]; Sildenafil 0.41 μM vs DMSO) was 4.6, the MFI ([3]; Sildenafil 0.41 μM) was 69042 and the “Stabilization ratio with Sildenafil” value ([3]; Sildenafil 1.23 μM vs DMSO) was 5.6. For the same substance, the MFI ([3]; Sildenafil 1.23 μM) was 84772, the “Stabilization ratio with Sildenafil” value ([3]; Sildenafil 3.70 μM vs DMSO) was 5.5 and the MFI ([3]; Sildenafil 3.70 μM) was 82519. The “Stabilization ratio with Sildenafil” value ([3]; Sildenafil 11.11 μM vs DMSO) was 6.1, the MFI ([3]; Sildenafil 11.11 μM) was 92732 and the “Stabilization ratio with Sildenafil” value ([3]; Sildenafil 33.33 μM vs DMSO) was 6.2. The MFI ([3]; Sildenafil 33.33 μM) was 93336, the “Stabilization ratio with Sildenafil” value ([3]; Sildenafil 100.00 μM vs DMSO) was 5.0 and the MFI ([3]; Sildenafil 100.00 μM) was 76090. For the same substance, the Basal expression ([3]; Table 26, MFI with DMSO / parental HCT116, Sildenafil experiment) was 11.7.
